As usually defined, the Kd is the constant that tells how readily two partners part at equilibrium.

Each structure is given as a SMILES string. Calls of active or inactive are those of the source. On the calls: in the data inactive means no Kd found up to 30 µM.

Experiment [1] concerns the target Serine/threonine-protein kinase PAK 6 (Homo sapiens, UniProt Q9NQU5).
In experiment [2] the target is T1, Dual specificity protein kinase TTK (Homo sapiens, UniProt P33981).
T1 sequence (P33981 whole entry): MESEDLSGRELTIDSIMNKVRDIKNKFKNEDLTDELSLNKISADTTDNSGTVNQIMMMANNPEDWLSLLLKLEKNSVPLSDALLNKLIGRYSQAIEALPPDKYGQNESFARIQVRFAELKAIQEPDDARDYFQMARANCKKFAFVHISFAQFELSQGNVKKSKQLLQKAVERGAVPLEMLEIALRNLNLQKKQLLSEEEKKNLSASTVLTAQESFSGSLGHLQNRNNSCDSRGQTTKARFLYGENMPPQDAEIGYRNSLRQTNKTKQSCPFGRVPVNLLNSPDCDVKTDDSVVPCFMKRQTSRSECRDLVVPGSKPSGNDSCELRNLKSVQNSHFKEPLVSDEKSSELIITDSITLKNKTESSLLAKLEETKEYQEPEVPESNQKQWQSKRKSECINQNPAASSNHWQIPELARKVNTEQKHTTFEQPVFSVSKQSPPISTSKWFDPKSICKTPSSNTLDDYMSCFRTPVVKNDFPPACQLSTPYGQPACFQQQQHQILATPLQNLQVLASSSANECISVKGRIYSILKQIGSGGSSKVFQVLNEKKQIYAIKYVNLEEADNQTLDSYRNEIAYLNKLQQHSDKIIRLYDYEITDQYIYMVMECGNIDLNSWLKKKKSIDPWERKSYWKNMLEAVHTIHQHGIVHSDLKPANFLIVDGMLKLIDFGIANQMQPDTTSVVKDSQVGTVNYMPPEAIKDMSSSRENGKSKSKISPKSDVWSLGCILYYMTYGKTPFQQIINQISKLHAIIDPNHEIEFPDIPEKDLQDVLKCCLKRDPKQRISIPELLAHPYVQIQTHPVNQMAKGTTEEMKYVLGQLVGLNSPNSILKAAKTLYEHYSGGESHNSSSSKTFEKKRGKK

The target in experiment [3] is Serine/threonine-protein kinase Nek7 (Homo sapiens, UniProt Q8TDX7).
Serine/threonine-protein kinase Nek7, sequence (Q8TDX7 whole entry): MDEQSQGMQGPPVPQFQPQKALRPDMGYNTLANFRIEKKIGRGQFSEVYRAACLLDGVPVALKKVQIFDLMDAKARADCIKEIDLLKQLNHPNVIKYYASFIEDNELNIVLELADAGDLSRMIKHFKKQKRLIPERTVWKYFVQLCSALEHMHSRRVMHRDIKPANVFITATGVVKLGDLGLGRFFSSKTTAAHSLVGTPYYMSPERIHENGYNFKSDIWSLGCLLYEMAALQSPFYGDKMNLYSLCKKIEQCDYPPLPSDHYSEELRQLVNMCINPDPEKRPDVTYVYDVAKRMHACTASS
For experiment [4], the target named is Serine/threonine-protein kinase N3 (Homo sapiens, UniProt Q6P5Z2).
Serine/threonine-protein kinase N3, sequence (Q6P5Z2 whole entry): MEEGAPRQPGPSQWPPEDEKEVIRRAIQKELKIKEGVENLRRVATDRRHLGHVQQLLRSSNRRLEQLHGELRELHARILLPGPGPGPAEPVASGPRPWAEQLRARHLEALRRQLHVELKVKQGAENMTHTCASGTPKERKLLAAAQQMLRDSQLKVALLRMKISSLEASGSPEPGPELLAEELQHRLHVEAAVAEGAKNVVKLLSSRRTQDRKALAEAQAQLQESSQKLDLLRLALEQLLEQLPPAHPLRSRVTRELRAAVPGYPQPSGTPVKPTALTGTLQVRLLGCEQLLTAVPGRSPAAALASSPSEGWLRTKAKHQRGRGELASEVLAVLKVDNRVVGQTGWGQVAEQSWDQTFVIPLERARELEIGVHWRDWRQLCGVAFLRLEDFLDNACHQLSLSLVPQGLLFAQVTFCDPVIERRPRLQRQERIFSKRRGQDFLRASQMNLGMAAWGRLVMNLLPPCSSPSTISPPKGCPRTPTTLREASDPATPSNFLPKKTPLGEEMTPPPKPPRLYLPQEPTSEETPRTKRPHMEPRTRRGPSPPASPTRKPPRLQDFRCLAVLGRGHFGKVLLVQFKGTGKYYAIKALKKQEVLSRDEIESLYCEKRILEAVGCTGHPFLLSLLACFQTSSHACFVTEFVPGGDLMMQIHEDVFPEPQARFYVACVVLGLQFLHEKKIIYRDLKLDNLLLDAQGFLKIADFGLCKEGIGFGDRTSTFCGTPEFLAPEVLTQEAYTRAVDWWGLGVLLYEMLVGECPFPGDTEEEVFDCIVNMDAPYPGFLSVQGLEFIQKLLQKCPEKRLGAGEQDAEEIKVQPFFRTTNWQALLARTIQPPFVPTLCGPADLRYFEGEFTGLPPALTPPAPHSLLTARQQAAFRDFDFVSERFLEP
Experiment [5] concerns the target T2, Electron transfer flavoprotein subunit beta (Homo sapiens, UniProt P38117).
T2 sequence (P38117 whole entry): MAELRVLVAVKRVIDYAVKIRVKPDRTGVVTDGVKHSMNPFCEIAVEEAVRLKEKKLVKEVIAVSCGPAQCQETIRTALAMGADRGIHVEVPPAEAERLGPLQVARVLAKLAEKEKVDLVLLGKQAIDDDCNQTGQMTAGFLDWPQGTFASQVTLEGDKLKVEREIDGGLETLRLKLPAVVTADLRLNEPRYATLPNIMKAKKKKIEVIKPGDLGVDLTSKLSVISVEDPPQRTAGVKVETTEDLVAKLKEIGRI

Experiment [6] concerns the target Serine/threonine-protein kinase pim-2 (Homo sapiens, UniProt Q9P1W9).
The target in experiment [7] is T3, Long-chain-fatty-acid--CoA ligase 5 (Homo sapiens, UniProt Q9ULC5).
T3 sequence (Q9ULC5 whole entry): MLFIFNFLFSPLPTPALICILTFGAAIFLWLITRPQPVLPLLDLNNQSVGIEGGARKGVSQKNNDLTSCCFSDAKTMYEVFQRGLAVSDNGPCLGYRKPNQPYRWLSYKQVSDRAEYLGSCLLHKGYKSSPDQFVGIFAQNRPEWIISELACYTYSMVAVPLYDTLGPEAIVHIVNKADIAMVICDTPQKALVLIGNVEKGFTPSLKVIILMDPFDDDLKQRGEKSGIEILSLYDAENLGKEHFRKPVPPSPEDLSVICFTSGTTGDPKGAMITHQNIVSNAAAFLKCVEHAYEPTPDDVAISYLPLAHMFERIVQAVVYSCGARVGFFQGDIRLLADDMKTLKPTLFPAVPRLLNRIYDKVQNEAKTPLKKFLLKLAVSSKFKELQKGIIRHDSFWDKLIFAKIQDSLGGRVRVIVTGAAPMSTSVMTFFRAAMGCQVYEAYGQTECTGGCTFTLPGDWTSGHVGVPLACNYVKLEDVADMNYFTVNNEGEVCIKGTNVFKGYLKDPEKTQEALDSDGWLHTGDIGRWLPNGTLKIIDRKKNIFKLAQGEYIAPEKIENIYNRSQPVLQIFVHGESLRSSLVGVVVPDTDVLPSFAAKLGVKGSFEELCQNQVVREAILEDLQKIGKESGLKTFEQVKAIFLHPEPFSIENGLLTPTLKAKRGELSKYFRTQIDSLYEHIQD

Serine/threonine-protein kinase pim-2, sequence (Q9P1W9 whole entry): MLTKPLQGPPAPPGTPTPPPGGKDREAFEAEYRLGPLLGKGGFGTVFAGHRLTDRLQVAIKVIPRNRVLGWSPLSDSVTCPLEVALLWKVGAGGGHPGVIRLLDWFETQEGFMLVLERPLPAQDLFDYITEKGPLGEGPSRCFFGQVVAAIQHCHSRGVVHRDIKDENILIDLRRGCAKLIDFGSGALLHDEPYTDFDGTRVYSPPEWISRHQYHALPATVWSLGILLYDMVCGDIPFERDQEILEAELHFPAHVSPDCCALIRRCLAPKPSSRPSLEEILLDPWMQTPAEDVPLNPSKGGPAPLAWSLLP
Serine/threonine-protein kinase PAK 6, sequence (Q9NQU5 whole entry): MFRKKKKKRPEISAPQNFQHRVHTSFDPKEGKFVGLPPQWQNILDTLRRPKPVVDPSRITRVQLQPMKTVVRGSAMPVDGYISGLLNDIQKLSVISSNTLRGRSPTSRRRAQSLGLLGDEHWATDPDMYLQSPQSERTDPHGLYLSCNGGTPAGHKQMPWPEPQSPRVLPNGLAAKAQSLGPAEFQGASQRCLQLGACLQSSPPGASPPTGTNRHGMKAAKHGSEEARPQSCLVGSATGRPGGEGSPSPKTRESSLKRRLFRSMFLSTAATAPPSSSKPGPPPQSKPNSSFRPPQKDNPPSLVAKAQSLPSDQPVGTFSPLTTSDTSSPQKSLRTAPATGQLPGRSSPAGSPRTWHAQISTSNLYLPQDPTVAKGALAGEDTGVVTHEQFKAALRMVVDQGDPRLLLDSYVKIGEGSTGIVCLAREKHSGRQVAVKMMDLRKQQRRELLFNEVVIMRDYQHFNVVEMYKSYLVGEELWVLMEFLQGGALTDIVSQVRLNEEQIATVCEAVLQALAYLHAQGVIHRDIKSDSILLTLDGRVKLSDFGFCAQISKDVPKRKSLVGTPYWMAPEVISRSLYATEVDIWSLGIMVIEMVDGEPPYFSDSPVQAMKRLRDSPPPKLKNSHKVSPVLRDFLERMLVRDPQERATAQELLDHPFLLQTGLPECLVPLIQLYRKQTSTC

As for `C[C@H]1CNCCCN1S(=O)(=O)c1cccc2cncc(F)c12`, the Kd in experiment [1], in experiment [2] and in experiment [3] was > 30 µM (inactive) each time.
In the case of `CC(=O)c1cnc2ccc(-c3cc(Cl)c(O)c(Cl)c3)nc2c1N[C@H]1CC[C@H](CN(C)C)CC1`, the Kd in experiment [4], in experiment [5] and in experiment [3] was > 30 µM (inactive) in each case.
As for `O=C(Nc1c[nH]nc1-c1nc2cc(CN3CCOCC3)ccc2[nH]1)NC1CC1` [AT-9283], the Kd in experiment [1] is 0.213 µM (active); in experiment [4] it was > 30 µM (inactive); in experiment [5] it was > 30 µM (inactive); in experiment [2] it was > 30 µM (inactive); in experiment [6], > 30 µM (inactive); in experiment [7] it was > 30 µM (inactive). Moreover, the Kd in experiment [3] is > 30 µM (inactive).
Consider `COc1cc([C@@H]2c3cc4c(cc3[C@H](O)[C@H]3COC(=O)[C@@H]23)OCO4)cc(OC)c1OC` [AXL-1717], for which the Kd in experiment [5], in experiment [2], in experiment [6] and in experiment [7] was > 30 µM (inactive) each time.
Regarding `NC(=O)Nc1cc(-c2cccc(F)c2)sc1C(=O)N[C@H]1CCCNC1` [AZD-7762], the Kd in experiment [5], in experiment [2], in experiment [6], in experiment [7] and in experiment [3] was > 30 µM (inactive) in each case.
Consider `CCn1c(C(=O)N(C2CC2)C2CC2)cc2c3c(ncn3C)c(Nc3cc(C)n(C)n3)nc21` [BMS-911543], for which the Kd in experiment [1], in experiment [5], in experiment [2], in experiment [7] and in experiment [3] was > 30 µM (inactive) in each case.
Take `Cc1cc(Nc2ncc(Cl)c(Nc3ccccc3S(=O)(=O)C(C)C)n2)c(OC(C)C)cc1C1CCNCC1` [CERITINIB]: the Kd in experiment [1], in experiment [4], in experiment [2], in experiment [6], in experiment [7] and in experiment [3] was > 30 µM (inactive) in each case.
In the case of `C#Cc1cccc(Nc2ncnc3cc(OC)c(OCCCCCCC(=O)NO)cc23)c1` [CUDC-101], the Kd in experiment [1], in experiment [4], in experiment [5], in experiment [2], in experiment [6] and in experiment [7] was > 30 µM (inactive) in each case.
For the compound `Cc1cccc(-c2nn3c(c2-c2ccnc4ccc(C(N)=O)cc24)CCC3)n1` [GALUNISERTIB], the Kd in experiment [1], in experiment [5], in experiment [2], in experiment [6], in experiment [7] and in experiment [3] was > 30 µM (inactive) in each case.
As for `COc1ccc(S(=O)(=O)N(C(C)=O)c2ccccc2/C=C/c2cc[n+]([O-])cc2)cc1` [HMN-214], the Kd in experiment [1], in experiment [4], in experiment [6] and in experiment [3] was > 30 µM (inactive) each time.
`O=C(Nc1cc(C(F)(F)F)cc(C(F)(F)F)c1)c1cc(Cl)ccc1O` [IMD-0354]: the Kd in experiment [1], in experiment [2] and in experiment [3] was > 30 µM (inactive) each time.
In the case of `CNC(=O)c1cccc2cc(Oc3ccnc4cc(OCC5(N)CC5)c(OC)cc34)ccc12` [LUCITANIB], the Kd in experiment [4], in experiment [5], in experiment [2], in experiment [6] and in experiment [3] was > 30 µM (inactive) in each case.
`NC1(c2ccc(-c3nc4ccn5c(=O)[nH]nc5c4cc3-c3ccccc3)cc2)CCC1` [MK-2206]: the Kd in experiment [1], in experiment [4], in experiment [7] and in experiment [3] was > 30 µM (inactive) each time.
On to `Cn1cc(-c2cnc3ccc4ccc(CS(=O)(=O)NCc5ccccn5)cc4c(=O)c3c2)cn1` [MK-8033], for which the Kd in experiment [1], in experiment [4], in experiment [5], in experiment [6], in experiment [7] and in experiment [3] was > 30 µM (inactive) each time.
As for `FC(F)(F)c1ccc(/C=C/c2nc(COc3ccc(CCCCn4ccnn4)cc3)co2)cc1` [MUBRITINIB], the Kd in experiment [2] and in experiment [6] was > 30 µM (inactive) throughout.
Take `COc1ncc(-c2ccc3nccc(-c4ccnnc4)c3c2)cc1NS(=O)(=O)c1ccc(F)cc1F` [OMIPALISIB]: the Kd in experiment [5], in experiment [2], in experiment [7] and in experiment [3] was > 30 µM (inactive) in each case.
In the case of `CNC(=O)c1cc(Oc2ccc(NC(=O)Nc3cc(C(C)(C)C)nn3-c3ccc4ncccc4c3)c(F)c2)ccn1` [REBASTINIB], the Kd in experiment [4], in experiment [2], in experiment [6] and in experiment [3] was > 30 µM (inactive) each time.
`N#CC1(c2ccc(NC(=O)c3cccnc3NCc3ccncc3)cc2)CCCC1` [RIVOCERANIB]: the Kd in experiment [1], in experiment [5], in experiment [2], in experiment [7] and in experiment [3] was > 30 µM (inactive) each time.
Turning to `CO[C@H]1C[C@@H]2CC[C@@H](C)[C@@](O)(O2)C(=O)C(=O)N2CCCC[C@H]2C(=O)O[C@H]([C@H](C)C[C@@H]2CC[C@@H](O)[C@H](OC)C2)CC(=O)[C@H](C)/C=C(\C)[C@@H](O)[C@@H](OC)C(=O)[C@H](C)C[C@H](C)/C=C/C=C/C=C/1C` [SIROLIMUS], the Kd in experiment [4], in experiment [5] and in experiment [2] was > 30 µM (inactive) in each case.
With `O=C1NC(=O)[C@@H](c2cn3c4c(cccc24)CCC3)[C@@H]1c1c[nH]c2ccccc12` [TIVANTINIB], the Kd in experiment [1], in experiment [5], in experiment [6], in experiment [7] and in experiment [3] was > 30 µM (inactive) in each case.
Regarding `Cc1cc(Nc2ncnc3ccc(NC4=NC(C)(C)CO4)cc23)ccc1Oc1ccn2ncnc2c1` [TUCATINIB], the Kd in experiment [4] and in experiment [3] was > 30 µM (inactive) each time.
As to `Cn1ncc(Cl)c1-c1cc(C(=O)N[C@H](CN)Cc2ccc(F)c(F)c2)oc1Cl` [UPROSERTIB], the Kd in experiment [1], in experiment [5], in experiment [2] and in experiment [6] was > 30 µM (inactive) each time.
For the compound `CC(C)c1cc(CNc2nc(Nc3cc(C4CC4)[nH]n3)cc(N3CCN(C)CC3)n2)on1` [XL-228], the Kd in experiment [1], in experiment [2], in experiment [6], in experiment [7] and in experiment [3] was > 30 µM (inactive) in each case.

(Values after ChEMBL document CHEMBL3991601, “The target landscape of clinical kinase drugs” (Science, 2017).)
